# Laboratory results from US11065232B2, “Dihydrotetrabenazine for the treatment of anxiety and psychoses” (ADEPTIO PHARMACEUTICALS LIMITED, priority 2017, dated 2021).
# How the values were obtained:
# [1] = target: T1, alpha 2A (h) (antagonist radioligand) (Homo sapiens, UniProt P08913); assay: Receptor protein binding studies, alpha 2A
# T1 sequence (P08913 1-465): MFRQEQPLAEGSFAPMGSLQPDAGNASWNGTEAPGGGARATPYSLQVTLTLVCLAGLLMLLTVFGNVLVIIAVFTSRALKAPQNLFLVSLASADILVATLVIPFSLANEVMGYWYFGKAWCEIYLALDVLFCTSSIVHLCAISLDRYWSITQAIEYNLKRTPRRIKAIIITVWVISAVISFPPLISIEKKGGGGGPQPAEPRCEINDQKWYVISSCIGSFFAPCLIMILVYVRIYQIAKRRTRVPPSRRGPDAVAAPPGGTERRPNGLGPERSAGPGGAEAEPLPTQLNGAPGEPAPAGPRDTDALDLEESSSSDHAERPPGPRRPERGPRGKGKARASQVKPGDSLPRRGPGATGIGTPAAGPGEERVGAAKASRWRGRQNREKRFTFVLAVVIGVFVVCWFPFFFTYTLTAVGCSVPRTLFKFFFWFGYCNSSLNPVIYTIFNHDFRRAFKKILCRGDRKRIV
# From the text: (§1) The four 3,11b trans-dihydrotetrabenazine isomers (+)-α, (−)-α, (+)-β and (−)-β were subjected to specific binding assays to test their ability to bind to the receptors and transporter proteins described below. The results are set out in Table 1
# [2] = target: T2, alpha 2C (h) (antagonist radioligand) (Homo sapiens, UniProt P18825); assay: Receptor protein binding studies, alpha 2C
# T2 sequence (P18825 1-462): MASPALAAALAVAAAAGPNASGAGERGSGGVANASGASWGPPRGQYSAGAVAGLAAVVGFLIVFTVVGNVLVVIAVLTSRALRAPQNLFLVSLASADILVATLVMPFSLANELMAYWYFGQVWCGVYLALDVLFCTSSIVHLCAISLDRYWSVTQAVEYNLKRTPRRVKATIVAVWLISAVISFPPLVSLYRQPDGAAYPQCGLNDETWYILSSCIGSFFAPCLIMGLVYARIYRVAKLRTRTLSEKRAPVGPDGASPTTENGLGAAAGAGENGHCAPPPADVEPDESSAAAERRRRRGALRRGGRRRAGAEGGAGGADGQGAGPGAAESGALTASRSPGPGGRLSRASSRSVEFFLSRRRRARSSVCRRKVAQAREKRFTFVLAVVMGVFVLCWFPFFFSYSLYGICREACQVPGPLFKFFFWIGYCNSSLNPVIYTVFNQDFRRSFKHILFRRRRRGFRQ
# From the text: as §1
# [3] = target: T3, D4.4 (h) (antagonist radioligand) (Homo sapiens, UniProt P21917); assay: Receptor protein binding studies, D4.4; settings: read-out: % Inhibition of specific binding
# T3 sequence (P21917 1-419): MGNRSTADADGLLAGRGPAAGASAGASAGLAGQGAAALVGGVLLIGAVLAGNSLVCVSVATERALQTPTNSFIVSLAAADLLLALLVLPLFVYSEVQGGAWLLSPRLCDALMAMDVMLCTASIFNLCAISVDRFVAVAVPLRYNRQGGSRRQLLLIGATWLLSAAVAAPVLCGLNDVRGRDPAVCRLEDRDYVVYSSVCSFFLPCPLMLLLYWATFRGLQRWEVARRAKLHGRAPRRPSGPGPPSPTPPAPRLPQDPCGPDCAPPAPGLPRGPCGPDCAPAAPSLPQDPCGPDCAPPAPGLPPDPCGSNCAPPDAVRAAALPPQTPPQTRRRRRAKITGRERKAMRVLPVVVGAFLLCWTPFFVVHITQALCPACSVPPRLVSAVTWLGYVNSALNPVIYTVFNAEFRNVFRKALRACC
# From the text: as §1
# [4] = test system: I2 (antagonist radioligand); assay: Receptor protein binding studies, I2
# From the text: as §1
# [5] = target: T4, 5-HT1A(h) (agonist radioligand) (Homo sapiens, UniProt P08908); assay: Receptor protein binding studies, 5-HT1A
# T4 sequence (P08908 1-422): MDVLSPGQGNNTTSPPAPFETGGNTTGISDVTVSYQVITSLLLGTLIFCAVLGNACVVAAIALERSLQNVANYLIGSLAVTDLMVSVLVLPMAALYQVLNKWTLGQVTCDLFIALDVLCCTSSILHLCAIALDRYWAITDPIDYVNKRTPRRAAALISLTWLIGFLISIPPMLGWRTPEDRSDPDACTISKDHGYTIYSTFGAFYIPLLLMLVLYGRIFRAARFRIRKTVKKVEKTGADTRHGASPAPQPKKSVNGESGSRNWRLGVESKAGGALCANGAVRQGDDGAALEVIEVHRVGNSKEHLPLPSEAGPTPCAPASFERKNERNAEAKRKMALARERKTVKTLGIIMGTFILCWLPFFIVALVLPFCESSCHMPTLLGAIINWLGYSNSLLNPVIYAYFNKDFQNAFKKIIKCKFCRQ
# From the text: as §1
# [6] = target: 5-HT2B (h) (agonist radioligand) (Homo sapiens, UniProt P41595); assay: Receptor protein binding studies, 5-HT2B
# 5-HT2B (h) (agonist radioligand), sequence (P41595 whole entry): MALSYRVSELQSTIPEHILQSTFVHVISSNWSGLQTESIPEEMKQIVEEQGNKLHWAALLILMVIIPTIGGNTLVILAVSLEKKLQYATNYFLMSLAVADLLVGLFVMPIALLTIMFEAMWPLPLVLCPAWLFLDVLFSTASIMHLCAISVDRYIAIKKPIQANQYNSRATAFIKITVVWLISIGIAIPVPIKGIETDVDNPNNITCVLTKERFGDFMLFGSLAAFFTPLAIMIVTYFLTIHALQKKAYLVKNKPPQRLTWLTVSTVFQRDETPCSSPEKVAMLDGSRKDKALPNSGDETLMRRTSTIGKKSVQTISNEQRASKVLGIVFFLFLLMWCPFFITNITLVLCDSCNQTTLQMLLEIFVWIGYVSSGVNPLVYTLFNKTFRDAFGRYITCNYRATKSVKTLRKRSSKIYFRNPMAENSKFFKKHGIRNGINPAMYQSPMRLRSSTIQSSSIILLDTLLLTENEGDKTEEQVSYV
# From the text: as §1
# [7] = target: hERG (membrane preparation) (antagonist radioligand) (Homo sapiens, UniProt Q12809); assay: Receptor protein binding studies, hERG
# hERG (membrane preparation) (antagonist radioligand), sequence (Q12809 whole entry): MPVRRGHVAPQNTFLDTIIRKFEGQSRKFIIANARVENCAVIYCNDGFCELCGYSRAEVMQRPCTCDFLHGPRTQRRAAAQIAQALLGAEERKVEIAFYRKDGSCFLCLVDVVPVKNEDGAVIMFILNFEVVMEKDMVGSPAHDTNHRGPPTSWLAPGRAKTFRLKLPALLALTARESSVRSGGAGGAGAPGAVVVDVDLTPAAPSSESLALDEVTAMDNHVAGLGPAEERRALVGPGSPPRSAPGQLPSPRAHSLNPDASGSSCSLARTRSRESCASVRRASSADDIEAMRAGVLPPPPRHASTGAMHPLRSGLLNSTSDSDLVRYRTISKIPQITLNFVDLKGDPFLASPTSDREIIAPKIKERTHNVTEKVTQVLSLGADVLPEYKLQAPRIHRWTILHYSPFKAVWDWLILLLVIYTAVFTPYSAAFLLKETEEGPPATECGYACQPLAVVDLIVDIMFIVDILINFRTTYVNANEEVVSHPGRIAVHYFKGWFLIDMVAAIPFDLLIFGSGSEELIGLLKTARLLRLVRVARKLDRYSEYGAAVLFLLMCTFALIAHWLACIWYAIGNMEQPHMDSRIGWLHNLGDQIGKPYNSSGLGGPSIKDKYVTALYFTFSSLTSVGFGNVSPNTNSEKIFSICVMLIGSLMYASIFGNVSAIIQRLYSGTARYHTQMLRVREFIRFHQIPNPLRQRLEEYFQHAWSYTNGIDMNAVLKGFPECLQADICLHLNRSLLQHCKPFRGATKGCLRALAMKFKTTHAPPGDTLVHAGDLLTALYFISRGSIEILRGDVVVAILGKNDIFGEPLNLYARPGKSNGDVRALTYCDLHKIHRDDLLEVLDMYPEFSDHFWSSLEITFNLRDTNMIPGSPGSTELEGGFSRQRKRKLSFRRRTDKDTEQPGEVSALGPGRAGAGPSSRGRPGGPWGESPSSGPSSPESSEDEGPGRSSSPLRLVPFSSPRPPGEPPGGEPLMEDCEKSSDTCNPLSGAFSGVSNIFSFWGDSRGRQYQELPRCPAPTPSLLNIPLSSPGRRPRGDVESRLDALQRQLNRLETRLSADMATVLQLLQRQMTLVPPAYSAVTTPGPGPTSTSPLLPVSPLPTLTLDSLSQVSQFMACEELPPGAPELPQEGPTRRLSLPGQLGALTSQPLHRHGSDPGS
# From the text: as §1
smiles,measurement,setting,value
"COc1cc2c(cc1OC)[C@@H]1C[C@@H](O)[C@@H](CC(C)C)CN1CC2 [(−)-Beta, (2S,3R,11bR)-3-isobutyl-9,10-dimethoxy-1,3,4,6,7,11b-hexahydro-2H-pyrido[2,1,a]isoquinolin-2-ol]",activity at the alpha 2A receptor (in words),[1],potent antagonists
same,activity at the alpha 2C receptor (in words),[2],potent antagonists
same,inhibition at 10 µM,"[3]; CONC 1.0E−05 (unit inferred), 10 μM",99%
same,inhibition at 1 µM,"[3]; CONC 1.0E−06 (unit inferred), 1 μM",87%
same,% Inhibition of specific binding,[4]; CONC 1.0E−05 (unit not given),37%
same,% Inhibition of specific binding,[4]; CONC 1.0E−06 (unit not given),11%
same,activity at the 5-HT 1A receptor (in words),[5],potent agonists
same,activity at the 5-HT 2B receptor (in words),[6],potent agonists
same,% Inhibition of specific binding,[7]; CONC 1.0E−05 (unit not given),64%
same,% Inhibition of specific binding,[7]; CONC 1.0E−06 (unit not given),−1%
